Data from patent US10376499B2, “Combination therapy for treatment of resistant bacterial infections” (priority 2014, dated 2019).
Converted amounts (≈) assume the structure as drawn.

Experiments:
Pseudomonas aeruginosa = assay: MIC summary, 600 strains of Pseudomonas aeruginosa (Example 8); conditions: n = 600 strains; cmpd 1 and SUL each at 4 μg/mL where present
Acinetobacter baumannii = assay: MIC summary, 600 strains of Acinetobacter baumannii (Example 8); conditions: n = 600 strains; cmpd 1 and SUL each at 4 μg/mL where present
A. baumannii [1] = assay: MIC by broth microdilution (CLSI), panel of 60 A. baumannii clinical isolates (Example 1); conditions: Acinetobacter baumannii
A. baumannii [2] = assay: MIC90 of common antibiotics+compound 1, 196 contemporary clinical isolates of A. baumannii (Example 4); conditions: B-lactam + Cmpd 1 (4 μg/mL)
A. baumannii [3] = assay: MIC of sulbactam+compound 1 versus Unasyn®+compound 1 (Example 2); conditions: equivalent total amount of sulbactam in both combinations; FIG. 2
B. pseudomallei K96243 = format: in vivo, Burkholderia pseudomallei; conditions: Balb/c mice, lethal intranasal challenge; therapy from 4 hours post challenge for six consecutive days; FIG. 5

## C[C@@H](O)[C@H]1C(=O)N2C(C(=O)O)=C(S[C@@H]3CN[C@H](C(=O)N(C)C)C3)[C@H](C)[C@H]12 [Meropenem, meropenem]
Pseudomonas aeruginosa
  MIC50: 0.5
  MIC90: >8
Acinetobacter baumannii
  MIC50: >8
  MIC90: >8
  MIC Max: >8
  MIC Min: 0.0599
A. baumannii [1]
  MIC50: 16 µg/mL (≈ 41.7 µM)
  MIC90: 32 µg/mL (≈ 83.4 µM)
A. baumannii [1]; strain ARC593, OXA-98
  MIC: 1 µg/mL (≈ 2.61 µM)
A. baumannii [1]; strain ARC2058, OXA-95
  MIC: 0.25 µg/mL (≈ 0.652 µM)
A. baumannii [1]; strain ARC2461, OXA-66, TEM-1
  MIC: 2 µg/mL (≈ 5.22 µM)
A. baumannii [1]; strain ARC2462, TEM-1, OXA-66
  MIC: 4 µg/mL (≈ 10.4 µM)
A. baumannii [1]; strain ARC2598, OXA*, TEM-1, OXA-113
  MIC: 8 µg/mL (≈ 20.9 µM)
A. baumannii [1]; strain ARC2635, OXA-65, OXA-40, TEM-1
  MIC: > 32 µg/mL
A. baumannii [1]; strain ARC2636, OXA-65, OXA-40, TEM-1
  MIC: > 32 µg/mL
A. baumannii [1]; strain ARC2674, SHV-5, OXA-113
  MIC: 8 µg/mL (≈ 20.9 µM)
A. baumannii [1]; strain ARC2675, SHV-5, OXA-113
  MIC: > 32 µg/mL
A. baumannii [1]; strain ARC2681, OXA-40, TEM-1, OXA-132
  MIC: 32 µg/mL (≈ 83.4 µM)
A. baumannii [1]; strain ARC2682, SHV-5, OXA-113
  MIC: 32 µg/mL (≈ 83.4 µM)
A. baumannii [1]; strain ARC2777, OXA-172, TEM-1
  MIC: 32 µg/mL (≈ 83.4 µM)
A. baumannii [1]; strain ARC2778, OXA-40, TEM-1, OXA-65
  MIC: > 32 µg/mL
A. baumannii [1]; strain ARC2779 (A. baumannii/calcoaceticus complex), OXA-2, VIM-2
  MIC: 16 µg/mL (≈ 41.7 µM)
A. baumannii [1]; strain ARC2780 (A. baumannii/calcoaceticus complex), OXA*, OXA-2, IMP-1
  MIC: 32 µg/mL (≈ 83.4 µM)
A. baumannii [1]; strain ARC2782, OXA-66, OXA-23, TEM-1, PER-1
  MIC: 16 µg/mL (≈ 41.7 µM)
A. baumannii [1]; strain ARC2788, OXA-65, TEM-1
  MIC: 1 µg/mL (≈ 2.61 µM)
A. baumannii [1]; strain ARC3484, TEM-1, OXA-23, OXA-64
  MIC: 32 µg/mL (≈ 83.4 µM)
A. baumannii [1]; strain ARC3485, OXA-82
  MIC: 16 µg/mL (≈ 41.7 µM)
A. baumannii [1]; strain ARC3486, OXA-72, OXA-66, TEM-1
  MIC: > 32 µg/mL
A. baumannii [1]; strain ARC3487, OXA-20, OXA-58, OXA-66
  MIC: 8 µg/mL (≈ 20.9 µM)
A. baumannii [1]; strain ARC3488, OXA*, OXA-68
  MIC: 4 µg/mL (≈ 10.4 µM)
A. baumannii [1]; strain ARC3489, OXA*, OXA-68
  MIC: 4 µg/mL (≈ 10.4 µM)
A. baumannii [1]; strain ARC3490, TEM-1+, PSE-2, OXA-69
  MIC: 0.5 µg/mL (≈ 1.3 µM)
A. baumannii [1]; strain ARC3491 (A. baumannii/calcoaceticus complex), OXA-215
  MIC: 2 µg/mL (≈ 5.22 µM)
A. baumannii [1]; strain ARC3492, OXA-40, OXA-132, TEM-1
  MIC: > 32 µg/mL
A. baumannii [1]; strain ARC3493, OXA-40, OXA-66
  MIC: > 32 µg/mL
A. baumannii [1]; strain ARC3494, OXA-65
  MIC: 0.25 µg/mL (≈ 0.652 µM)
A. baumannii [1]; strain ARC3495, OXA-40, OXA-109
  MIC: > 32 µg/mL
A. baumannii [1]; strain ARC3513, TEM-1, OXA-23, OXA-65
  MIC: 32 µg/mL (≈ 83.4 µM)
A. baumannii [1]; strain ARC3515, OXA-64, OXA-58
  MIC: 4 µg/mL (≈ 10.4 µM)
A. baumannii [1]; strain ARC3657, OXA-130
  MIC: 2 µg/mL (≈ 5.22 µM)
A. baumannii [1]; strain ARC3658, OXA-66, PER-1, TEM-1, OXA-23
  MIC: 32 µg/mL (≈ 83.4 µM)
A. baumannii [1]; strain ARC3659, OXA-23, OXA*
  MIC: 8 µg/mL (≈ 20.9 µM)
A. baumannii [1]; strain ARC3882, OXA-23, NDM-1, OXA-10*
  MIC: > 32 µg/mL
A. baumannii [1]; strain ARC5073, OXA-23, TEM-1, OXA-64, PER-1
  MIC: > 32 µg/mL
A. baumannii [1]; strain ARC5074, GES*, TEM-1, OXA-51
  MIC: 8 µg/mL (≈ 20.9 µM)
A. baumannii [1]; strain ARC5075, SHV-5, OXA-113
  MIC: 32 µg/mL (≈ 83.4 µM)
A. baumannii [1]; strain ARC5076, TEM-1, OXA-23, OXA-66
  MIC: 32 µg/mL (≈ 83.4 µM)
A. baumannii [1]; strain ARC5077, OXA*, OXA-72
  MIC: > 32 µg/mL
A. baumannii [1]; strain ARC5079, OXA-72, OXA-65
  MIC: > 32 µg/mL
A. baumannii [1]; strain ARC5080, OXA-71, OXA-40
  MIC: > 32 µg/mL
A. baumannii [1]; strain ARC5081, OXA-94, OXA-23
  MIC: 16 µg/mL (≈ 41.7 µM)
A. baumannii [1]; strain ARC5082, OXA-66, OXA-23
  MIC: > 32 µg/mL
A. baumannii [1]; strain ARC5083, OXA-66, OXA-23
  MIC: 16 µg/mL (≈ 41.7 µM)
A. baumannii [1]; strain ARC5084, IMP-4(B), OXA-58, OXA-65
  MIC: > 32 µg/mL
A. baumannii [1]; strain ARC5085, OXA*, TEM-1
  MIC: 8 µg/mL (≈ 20.9 µM)
A. baumannii [1]; strain ARC5086, OXA*, TEM-1, OXA-72, OXA-66
  MIC: > 32 µg/mL
A. baumannii [1]; strain ARC5087, OXA-66, OXA-23
  MIC: 16 µg/mL (≈ 41.7 µM)
A. baumannii [1]; strain ARC5088, OXA-20, OXA-58, OXA-66
  MIC: 8 µg/mL (≈ 20.9 µM)
A. baumannii [1]; strain ARC5089, PER*, TEM-1, OXA-23, OXA-66
  MIC: 32 µg/mL (≈ 83.4 µM)
A. baumannii [1]; strain ARC5091, OXA-82, OXA-23
  MIC: 32 µg/mL (≈ 83.4 µM)
A. baumannii [1]; strain ARC5092, OXA-23, OXA-64
  MIC: 16 µg/mL (≈ 41.7 µM)
A. baumannii [2]
  MIC90: 16 µg/mL

## CC1(C)S[C@@H]2[C@H](NC(=O)[C@H](N)c3ccccc3)C(=O)N2[C@H]1C(=O)O [ampicillin]
A. baumannii [3]
  effect of ampicillin on efficacy (MIC of Unasyn®+compound 1 versus sulbactam+compound 1): no effect on the efficacy

## C[C@H]1c2cccc(O)c2C(=O)C2=C(O)[C@]3(O)C(=O)C(C(N)=O)=C(O)[C@@H](N(C)C)[C@@H]3[C@@H](O)[C@@H]21 [doxycycline]
B. pseudomallei K96243
  survivorship: 40%
